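GI50 is the concentration that inhibits growth by half. TGI is the concentration that stops growth completely.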
Columns and labels:
Assay in all cases: NCI anticancer screen, dose series, 384-well format
NCI-H23 lung = system: NCI-H23 lung
CAKI-1 renal = system: CAKI-1 renal
OVCAR-3 ovarian = system: OVCAR-3 ovarian
SNB-75 CNS = system: SNB-75 CNS
RPMI-8226 leukemia = system: RPMI-8226 leukemia
NCI-H522 lung = system: NCI-H522 lung
NCI-H226 lung = system: NCI-H226 lung
SN12C renal = system: SN12C renal
MCF7 breast = system: MCF7 breast
HCT-116 colon = system: HCT-116 colon
MDA-MB-468 breast = system: MDA-MB-468 breast
HOP-92 NSCLC = system: HOP-92 NSCLC
MDA-MB-231 breast = system: MDA-MB-231 breast
BT-549 breast = system: BT-549 breast
UACC-62 melanoma = system: UACC-62 melanoma
TK-10 renal = system: TK-10 renal
OVCAR-8 ovarian = system: OVCAR-8 ovarian
COLO 205 colon = system: COLO 205 colon
NCI/ADR-RES ovarian = system: NCI/ADR-RES ovarian
RXF 393 renal = system: RXF 393 renal
SW-620 colon = system: SW-620 colon
HCC-2998 colon = system: HCC-2998 colon
LOX IMVI melanoma = system: LOX IMVI melanoma
OVCAR-4 ovarian = system: OVCAR-4 ovarian
UO-31 renal = system: UO-31 renal
HOP-62 NSCLC = system: HOP-62 NSCLC
HCT-15 colon = system: HCT-15 colon
SF-539 CNS = system: SF-539 CNS
DU-145 prostate = system: DU-145 prostate
SR leukemia = system: SR leukemia
U251 glioblastoma = system: U251 glioblastoma
NCI-H322M lung = system: NCI-H322M lung
MOLT-4 leukemia = system: MOLT-4 leukemia
M14 melanoma = system: M14 melanoma
IGROV1 ovarian = system: IGROV1 ovarian
UACC-257 melanoma = system: UACC-257 melanoma
SNB-19 CNS = system: SNB-19 CNS
MDA-MB-435 melanoma = system: MDA-MB-435 melanoma
MALME-3M melanoma = system: MALME-3M melanoma
SF-295 CNS = system: SF-295 CNS
K-562 leukemia = system: K-562 leukemia
HT29 colon = system: HT29 colon
SF-268 CNS = system: SF-268 CNS
A498 renal = system: A498 renal
NCI-H460 NSCLC = system: NCI-H460 NSCLC
KM12 colon = system: KM12 colon
SK-MEL-5 melanoma = system: SK-MEL-5 melanoma
PC-3 prostate = system: PC-3 prostate
T-47D breast = system: T-47D breast
SK-MEL-28 melanoma = system: SK-MEL-28 melanoma
EKVX NSCLC = system: EKVX NSCLC
ACHN renal = system: ACHN renal
786-0 renal = system: 786-0 renal
CCRF-CEM leukemia = system: CCRF-CEM leukemia
SK-OV-3 ovarian = system: SK-OV-3 ovarian
HL-60(TB) leukemia = system: HL-60(TB) leukemia
HS 578T breast = system: HS 578T breast
A549 NSCLC = system: A549 NSCLC

## CNCCN(C)Cc1cn[nH]c1-c1ccc(OC2CC(OCCC3CCOCC3)C2)cc1 (stereo unspecified)
NCI-H23 lung
  GI50: 40 µM
  TGI: > 100 µM
CAKI-1 renal
  GI50: 41.2 µM
  TGI: > 100 µM
OVCAR-3 ovarian
  GI50: 24 µM
  TGI: > 100 µM
SNB-75 CNS
  GI50: > 100 µM
  TGI: > 100 µM
RPMI-8226 leukemia
  GI50: 24.5 µM
  TGI: > 100 µM
NCI-H522 lung
  GI50: > 100 µM
  TGI: > 100 µM
NCI-H226 lung
  GI50: > 100 µM
  TGI: > 100 µM
SN12C renal
  GI50: 89.2 µM
  TGI: > 100 µM
MCF7 breast
  GI50: 51.5 µM
  TGI: > 100 µM
HCT-116 colon
  GI50: 36.6 µM
  TGI: > 100 µM
MDA-MB-468 breast
  GI50: 45.5 µM
  TGI: > 100 µM
HOP-92 NSCLC
  GI50: 42.5 µM
  TGI: > 100 µM
MDA-MB-231 breast
  GI50: 78.8 µM
  TGI: > 100 µM
BT-549 breast
  GI50: 61.4 µM
  TGI: > 100 µM
UACC-62 melanoma
  GI50: 22 µM
  TGI: 66.6 µM
TK-10 renal
  GI50: 84.5 µM
  TGI: > 100 µM
OVCAR-8 ovarian
  GI50: > 100 µM
  TGI: > 100 µM
COLO 205 colon
  GI50: 96.4 µM
  TGI: > 100 µM
NCI/ADR-RES ovarian
  GI50: > 100 µM
  TGI: > 100 µM
RXF 393 renal
  GI50: 69.8 µM
  TGI: > 100 µM
SW-620 colon
  GI50: > 100 µM
  TGI: > 100 µM
HCC-2998 colon
  GI50: 50.7 µM
  TGI: > 100 µM
LOX IMVI melanoma
  GI50: 32.6 µM
  TGI: > 100 µM
OVCAR-4 ovarian
  GI50: > 100 µM
  TGI: > 100 µM
UO-31 renal
  GI50: 80.2 µM
  TGI: > 100 µM
HOP-62 NSCLC
  GI50: 58.3 µM
  TGI: > 100 µM
HCT-15 colon
  GI50: > 100 µM
  TGI: > 100 µM
SF-539 CNS
  GI50: 94.4 µM
  TGI: > 100 µM
DU-145 prostate
  GI50: > 100 µM
  TGI: > 100 µM
SR leukemia
  GI50: 7.14 µM
  TGI: 15 µM
U251 glioblastoma
  GI50: 51.8 µM
  TGI: > 100 µM
NCI-H322M lung
  GI50: > 100 µM
  TGI: > 100 µM
MOLT-4 leukemia
  GI50: 36.8 µM
  TGI: > 100 µM
M14 melanoma
  GI50: > 100 µM
  TGI: > 100 µM
IGROV1 ovarian
  GI50: 37.1 µM
  TGI: > 100 µM
UACC-257 melanoma
  GI50: 18.9 µM
  TGI: 43.3 µM
SNB-19 CNS
  GI50: > 100 µM
  TGI: > 100 µM
MDA-MB-435 melanoma
  GI50: > 100 µM
  TGI: > 100 µM
MALME-3M melanoma
  GI50: 13.6 µM
  TGI: 56.2 µM
SF-295 CNS
  GI50: 64.5 µM
  TGI: > 100 µM
K-562 leukemia
  GI50: 9.91 µM
  TGI: 25 µM
HT29 colon
  GI50: 24.6 µM
  TGI: 71.5 µM
SF-268 CNS
  GI50: 83.6 µM
  TGI: > 100 µM
A498 renal
  GI50: 48.9 µM
  TGI: > 100 µM
NCI-H460 NSCLC
  GI50: 43.8 µM
  TGI: > 100 µM
KM12 colon
  GI50: > 100 µM
  TGI: > 100 µM
SK-MEL-5 melanoma
  GI50: 16.1 µM
  TGI: > 100 µM
PC-3 prostate
  GI50: 75.4 µM
  TGI: > 100 µM
T-47D breast
  GI50: 71.2 µM
  TGI: > 100 µM
SK-MEL-28 melanoma
  GI50: 43 µM
  TGI: > 100 µM
EKVX NSCLC
  GI50: 60.6 µM
  TGI: > 100 µM
ACHN renal
  GI50: 70.9 µM
  TGI: > 100 µM
786-0 renal
  GI50: 41.4 µM
  TGI: > 100 µM
CCRF-CEM leukemia
  GI50: 53.8 µM
  TGI: > 100 µM
SK-OV-3 ovarian
  GI50: > 100 µM
  TGI: > 100 µM
HL-60(TB) leukemia
  GI50: 3.26 µM
  TGI: 12.4 µM
HS 578T breast
  GI50: > 100 µM
  TGI: > 100 µM
A549 NSCLC
  GI50: 79.6 µM
  TGI: > 100 µM
